Test results as given in the kinase profiling compilation of Christmann-Franck et al. (2016).

Legend:
Assay in all cases: KINOMEscan competition binding
Details in all cases: compound 10.0 µM
[1] = test system: ABL1 (human), P00519 [M351T]
ALK (human) = ALK (human) (UniProt Q9UM73)
AURKA (human) = AURKA (human) (UniProt O14965)
BMPR1A (human) = BMPR1A (human) (UniProt P36894)
CAMK2A (human) = CAMK2A (human) (UniProt Q9UQM7)
CAMK2G (human) = CAMK2G (human) (UniProt Q13555)
CDC42BPA (human) = CDC42BPA (human) (UniProt Q5VT25)
CDK18 (human) = CDK18 (human) (UniProt Q07002)
CDKL2 (human) = CDKL2 (human) (UniProt Q92772)
DDR2 (human) = DDR2 (human) (UniProt Q16832)
EIF2AK2 (human) = EIF2AK2 (human) (UniProt P19525)
EPHA2 (human) = EPHA2 (human) (UniProt P29317)
EPHA6 (human) = EPHA6 (human) (UniProt Q9UF33)
EPHB3 (human) = EPHB3 (human) (UniProt P54753)
FGFR2 (human) = FGFR2 (human) (UniProt P21802)
[2] = test system: FGFR3 (human), P22607 [G697C]
FYN (human) = FYN (human) (UniProt P06241)
INSR (human) = INSR (human) (UniProt P06213)
LATS1 (human) = LATS1 (human) (UniProt O95835)
LATS2 (human) = LATS2 (human) (UniProt Q9NRM7)
MAP3K12 (human) = MAP3K12 (human) (UniProt Q12852)
MAPK4 (human) = MAPK4 (human) (UniProt P31152)
MARK2 (human) = MARK2 (human) (UniProt Q7KZI7)
MARK3 (human) = MARK3 (human) (UniProt P27448)
MLTK (human) = MLTK (human) (UniProt Q9NYL2)
PIK3CD (human) = PIK3CD (human) (UniProt O00329)
PKMYT1 (human) = PKMYT1 (human) (UniProt Q99640)
PLK1 (human) = PLK1 (human) (UniProt P53350)
PRKCQ (human) = PRKCQ (human) (UniProt Q04759)
PRKD2 (human) = PRKD2 (human) (UniProt Q9BZL6)
PRKG1 (human) = PRKG1 (human) (UniProt Q13976)
RAF1 (human) = RAF1 (human) (UniProt P04049)
[3] = test system: RET (human), P07949 [M918T]
ROS1 (human) = ROS1 (human) (UniProt P08922)
SIK2 (human) = SIK2 (human) (UniProt Q9H0K1)
STK10 (human) = STK10 (human) (UniProt O94804)
STK3 (human) = STK3 (human) (UniProt Q13188)
STK38L (human) = STK38L (human) (UniProt Q9Y2H1)
TESK1 (human) = TESK1 (human) (UniProt Q15569)
TIE1 (human) = TIE1 (human) (UniProt P35590)
TNNI3K (human) = TNNI3K (human) (UniProt Q59H18)
ZAP70 (human) = ZAP70 (human) (UniProt P43403)

Chain of PKMYT1 (human) (Q99640 whole entry, looked up): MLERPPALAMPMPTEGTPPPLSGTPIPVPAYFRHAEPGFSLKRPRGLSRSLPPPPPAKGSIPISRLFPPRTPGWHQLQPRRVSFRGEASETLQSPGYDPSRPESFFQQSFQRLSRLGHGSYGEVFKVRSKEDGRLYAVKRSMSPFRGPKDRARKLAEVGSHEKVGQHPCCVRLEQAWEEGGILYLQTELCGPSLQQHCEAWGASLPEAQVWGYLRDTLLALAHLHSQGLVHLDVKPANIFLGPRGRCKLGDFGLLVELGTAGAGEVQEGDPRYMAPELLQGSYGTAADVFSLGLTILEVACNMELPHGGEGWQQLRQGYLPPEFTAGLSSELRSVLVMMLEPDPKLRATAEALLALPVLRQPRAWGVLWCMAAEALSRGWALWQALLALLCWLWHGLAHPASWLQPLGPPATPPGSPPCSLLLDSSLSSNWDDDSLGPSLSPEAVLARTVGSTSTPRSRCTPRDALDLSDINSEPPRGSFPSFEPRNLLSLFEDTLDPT
Chain of EPHA6 (human) (Q9UF33 whole entry, looked up): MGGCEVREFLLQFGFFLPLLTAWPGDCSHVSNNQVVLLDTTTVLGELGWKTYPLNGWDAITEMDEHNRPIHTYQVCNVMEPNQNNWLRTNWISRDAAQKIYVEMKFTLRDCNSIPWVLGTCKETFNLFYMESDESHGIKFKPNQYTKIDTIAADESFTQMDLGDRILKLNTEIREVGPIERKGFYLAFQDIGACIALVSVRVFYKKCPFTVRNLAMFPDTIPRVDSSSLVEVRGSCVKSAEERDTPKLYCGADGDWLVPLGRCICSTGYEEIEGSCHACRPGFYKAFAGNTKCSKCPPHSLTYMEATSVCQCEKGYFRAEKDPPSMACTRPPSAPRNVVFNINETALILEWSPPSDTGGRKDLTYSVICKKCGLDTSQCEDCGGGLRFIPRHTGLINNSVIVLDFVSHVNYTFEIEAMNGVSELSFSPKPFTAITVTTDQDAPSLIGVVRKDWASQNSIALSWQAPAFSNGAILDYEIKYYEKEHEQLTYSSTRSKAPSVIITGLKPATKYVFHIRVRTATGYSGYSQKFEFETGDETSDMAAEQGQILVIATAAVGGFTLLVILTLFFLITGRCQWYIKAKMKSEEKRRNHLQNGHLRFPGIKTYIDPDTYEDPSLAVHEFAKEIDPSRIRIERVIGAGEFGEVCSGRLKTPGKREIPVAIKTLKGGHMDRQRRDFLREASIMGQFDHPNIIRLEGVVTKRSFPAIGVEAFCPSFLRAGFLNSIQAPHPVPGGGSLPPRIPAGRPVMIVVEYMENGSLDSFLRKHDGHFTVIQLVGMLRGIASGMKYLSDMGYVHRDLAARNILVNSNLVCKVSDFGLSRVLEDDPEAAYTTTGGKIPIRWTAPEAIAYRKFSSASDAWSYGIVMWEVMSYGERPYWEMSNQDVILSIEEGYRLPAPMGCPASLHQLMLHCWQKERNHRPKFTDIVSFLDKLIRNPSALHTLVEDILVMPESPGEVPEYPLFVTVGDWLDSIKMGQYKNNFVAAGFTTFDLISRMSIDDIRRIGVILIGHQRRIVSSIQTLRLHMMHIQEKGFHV
Chain of EIF2AK2 (human) (P19525 whole entry, looked up): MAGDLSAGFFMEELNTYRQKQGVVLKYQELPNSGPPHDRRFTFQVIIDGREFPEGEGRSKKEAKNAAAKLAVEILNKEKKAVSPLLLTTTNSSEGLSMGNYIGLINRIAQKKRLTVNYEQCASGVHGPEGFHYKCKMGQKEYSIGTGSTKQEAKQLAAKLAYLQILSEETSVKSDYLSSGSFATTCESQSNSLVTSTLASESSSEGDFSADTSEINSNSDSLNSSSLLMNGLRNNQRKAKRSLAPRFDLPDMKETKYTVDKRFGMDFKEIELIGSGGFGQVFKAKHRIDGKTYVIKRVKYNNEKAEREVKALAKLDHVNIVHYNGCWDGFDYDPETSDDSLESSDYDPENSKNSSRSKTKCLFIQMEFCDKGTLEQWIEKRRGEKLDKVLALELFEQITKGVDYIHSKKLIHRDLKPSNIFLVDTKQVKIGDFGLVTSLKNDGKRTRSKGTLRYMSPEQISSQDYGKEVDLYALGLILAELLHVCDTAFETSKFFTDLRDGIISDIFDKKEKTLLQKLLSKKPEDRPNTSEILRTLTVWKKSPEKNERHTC
Chain of CDC42BPA (human) (Q5VT25 whole entry, looked up): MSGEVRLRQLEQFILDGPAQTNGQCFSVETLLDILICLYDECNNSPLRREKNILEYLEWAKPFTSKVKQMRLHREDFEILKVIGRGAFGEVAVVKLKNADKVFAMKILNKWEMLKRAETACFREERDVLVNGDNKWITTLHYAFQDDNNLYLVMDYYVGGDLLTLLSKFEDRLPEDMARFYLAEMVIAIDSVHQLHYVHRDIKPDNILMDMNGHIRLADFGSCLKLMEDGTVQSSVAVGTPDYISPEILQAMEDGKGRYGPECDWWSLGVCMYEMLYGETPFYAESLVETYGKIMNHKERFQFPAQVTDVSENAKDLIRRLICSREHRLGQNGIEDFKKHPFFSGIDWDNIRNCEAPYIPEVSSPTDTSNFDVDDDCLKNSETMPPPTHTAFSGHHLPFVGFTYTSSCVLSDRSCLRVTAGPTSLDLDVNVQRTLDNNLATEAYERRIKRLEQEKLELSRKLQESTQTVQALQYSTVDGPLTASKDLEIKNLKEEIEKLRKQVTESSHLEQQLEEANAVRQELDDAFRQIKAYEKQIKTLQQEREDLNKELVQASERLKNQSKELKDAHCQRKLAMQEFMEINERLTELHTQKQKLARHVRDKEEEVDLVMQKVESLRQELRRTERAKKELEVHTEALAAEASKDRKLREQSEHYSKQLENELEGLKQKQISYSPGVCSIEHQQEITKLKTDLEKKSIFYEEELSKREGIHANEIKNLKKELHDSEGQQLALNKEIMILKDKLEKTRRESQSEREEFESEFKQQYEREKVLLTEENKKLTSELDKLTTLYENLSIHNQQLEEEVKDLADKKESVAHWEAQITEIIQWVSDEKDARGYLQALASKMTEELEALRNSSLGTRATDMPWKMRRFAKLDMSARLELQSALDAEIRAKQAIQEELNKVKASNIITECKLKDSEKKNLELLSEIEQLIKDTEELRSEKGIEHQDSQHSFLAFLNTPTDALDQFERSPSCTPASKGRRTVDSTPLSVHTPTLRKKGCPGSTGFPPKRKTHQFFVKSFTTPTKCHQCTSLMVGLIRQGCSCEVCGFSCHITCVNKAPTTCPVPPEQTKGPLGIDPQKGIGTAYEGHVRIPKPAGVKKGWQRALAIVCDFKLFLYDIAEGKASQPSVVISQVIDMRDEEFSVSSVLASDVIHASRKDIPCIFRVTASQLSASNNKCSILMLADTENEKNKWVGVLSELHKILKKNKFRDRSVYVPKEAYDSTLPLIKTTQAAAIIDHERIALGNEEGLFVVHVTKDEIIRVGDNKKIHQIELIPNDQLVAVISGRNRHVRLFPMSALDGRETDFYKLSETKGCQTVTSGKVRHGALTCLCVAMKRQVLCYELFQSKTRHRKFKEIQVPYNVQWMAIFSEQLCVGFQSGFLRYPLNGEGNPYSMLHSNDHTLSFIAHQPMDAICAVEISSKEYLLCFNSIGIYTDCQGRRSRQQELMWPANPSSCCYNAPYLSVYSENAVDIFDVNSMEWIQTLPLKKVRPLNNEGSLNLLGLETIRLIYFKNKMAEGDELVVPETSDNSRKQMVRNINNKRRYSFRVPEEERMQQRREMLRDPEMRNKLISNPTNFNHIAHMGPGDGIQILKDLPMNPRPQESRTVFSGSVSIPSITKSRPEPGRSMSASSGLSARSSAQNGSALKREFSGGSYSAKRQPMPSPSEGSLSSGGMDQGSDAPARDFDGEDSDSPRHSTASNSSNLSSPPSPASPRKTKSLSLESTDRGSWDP
Chain of STK10 (human) (O94804 whole entry, looked up): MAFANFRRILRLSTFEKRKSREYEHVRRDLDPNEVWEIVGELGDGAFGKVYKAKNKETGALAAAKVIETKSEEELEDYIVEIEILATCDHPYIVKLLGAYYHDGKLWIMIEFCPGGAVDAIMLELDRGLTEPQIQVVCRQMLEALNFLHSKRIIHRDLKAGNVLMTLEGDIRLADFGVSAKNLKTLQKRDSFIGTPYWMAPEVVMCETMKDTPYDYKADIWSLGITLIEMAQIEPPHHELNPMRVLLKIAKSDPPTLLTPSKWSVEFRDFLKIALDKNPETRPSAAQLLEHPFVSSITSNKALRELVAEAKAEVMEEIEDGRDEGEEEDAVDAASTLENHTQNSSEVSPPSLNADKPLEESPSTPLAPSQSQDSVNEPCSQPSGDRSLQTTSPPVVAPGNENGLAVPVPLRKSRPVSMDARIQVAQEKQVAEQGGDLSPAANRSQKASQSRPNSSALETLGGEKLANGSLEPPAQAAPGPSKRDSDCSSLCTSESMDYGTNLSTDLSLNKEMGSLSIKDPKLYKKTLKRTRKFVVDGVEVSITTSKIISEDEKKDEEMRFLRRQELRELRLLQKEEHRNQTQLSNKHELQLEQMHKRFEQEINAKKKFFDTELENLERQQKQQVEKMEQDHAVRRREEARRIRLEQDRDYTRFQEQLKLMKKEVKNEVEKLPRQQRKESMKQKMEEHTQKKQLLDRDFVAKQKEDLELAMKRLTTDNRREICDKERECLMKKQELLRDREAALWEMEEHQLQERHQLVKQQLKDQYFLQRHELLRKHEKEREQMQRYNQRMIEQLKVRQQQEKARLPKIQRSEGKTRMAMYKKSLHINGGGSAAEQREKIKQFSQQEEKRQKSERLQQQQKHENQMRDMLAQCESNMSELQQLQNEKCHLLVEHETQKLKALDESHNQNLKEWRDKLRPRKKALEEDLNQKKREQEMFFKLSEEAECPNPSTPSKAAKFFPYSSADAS

Which results are given for O=C1NC(=O)/C(=C/c2c[nH]c(=O)c(-c3ccc(N4CCNCC4)nc3)c2)S1?
kinase still bound, per cent of control [1]: 49%; kinase still bound, per cent of control (ALK (human)): 54%; kinase still bound, per cent of control (AURKA (human)): 100%; kinase still bound, per cent of control (BMPR1A (human)): 100%; kinase still bound, per cent of control (CAMK2A (human)): 7.8%; kinase still bound, per cent of control (CAMK2G (human)): 65%; kinase still bound, per cent of control (CDC42BPA (human)): 73%; kinase still bound, per cent of control (CDK18 (human)): 82%; kinase still bound, per cent of control (CDKL2 (human)): 67%; kinase still bound, per cent of control (DDR2 (human)): 100%; kinase still bound, per cent of control (EIF2AK2 (human)): 38%; kinase still bound, per cent of control (EPHA2 (human)): 100%; kinase still bound, per cent of control (EPHA6 (human)): 97%; kinase still bound, per cent of control (EPHB3 (human)): 91%; kinase still bound, per cent of control (FGFR2 (human)): 100%; kinase still bound, per cent of control [2]: 100%; kinase still bound, per cent of control (FYN (human)): 92%; kinase still bound, per cent of control (INSR (human)): 54%; kinase still bound, per cent of control (LATS1 (human)): 84%; kinase still bound, per cent of control (LATS2 (human)): 100%; kinase still bound, per cent of control (MAP3K12 (human)): 76%; kinase still bound, per cent of control (MAPK4 (human)): 100%; kinase still bound, per cent of control (MARK2 (human)): 60%; kinase still bound, per cent of control (MARK3 (human)): 100%; kinase still bound, per cent of control (MLTK (human)): 92%; kinase still bound, per cent of control (PIK3CD (human)): 0%; kinase still bound, per cent of control (PKMYT1 (human)): 100%; kinase still bound, per cent of control (PLK1 (human)): 46%; kinase still bound, per cent of control (PRKCQ (human)): 44%; kinase still bound, per cent of control (PRKD2 (human)): 8.3%; kinase still bound, per cent of control (PRKG1 (human)): 100%; kinase still bound, per cent of control (RAF1 (human)): 94%; kinase still bound, per cent of control [3]: 46%; kinase still bound, per cent of control (ROS1 (human)): 100%; kinase still bound, per cent of control (SIK2 (human)): 76%; kinase still bound, per cent of control (STK10 (human)): 33%; kinase still bound, per cent of control (STK3 (human)): 90%; kinase still bound, per cent of control (STK38L (human)): 92%; kinase still bound, per cent of control (TESK1 (human)): 100%; kinase still bound, per cent of control (TIE1 (human)): 64%; kinase still bound, per cent of control (TNNI3K (human)): 96%; kinase still bound, per cent of control (ZAP70 (human)): 61%

How did the kinase still bound, per cent of control [1] turn out when COc1cc(N2CCN(C)CC2)ccc1Nc1ncc2c(n1)Nc1ccccc1NC2=O was run?
The kinase still bound, per cent of control was 15%.

And the kinase still bound, per cent of control (ALK (human))?
The kinase still bound, per cent of control was 53%.

And the kinase still bound, per cent of control (AURKA (human))?
The kinase still bound, per cent of control was 78%.

What about the kinase still bound, per cent of control (BMPR1A (human)) of the same compound?
Its kinase still bound, per cent of control is 80%.

What about the kinase still bound, per cent of control (CAMK2A (human)) of the same compound?
The kinase still bound, per cent of control was 90%.

And the kinase still bound, per cent of control (CAMK2G (human))?
The kinase still bound, per cent of control was 100%.

What about the kinase still bound, per cent of control (CDC42BPA (human)) of the same compound?
Its kinase still bound, per cent of control is 100%.

And the kinase still bound, per cent of control (CDK18 (human))?
The kinase still bound, per cent of control was 86%.

And the kinase still bound, per cent of control (CDKL2 (human))?
The kinase still bound, per cent of control was 9.5%.

What about the kinase still bound, per cent of control (DDR2 (human)) of the same compound?
Its kinase still bound, per cent of control is 100%.

And the kinase still bound, per cent of control (EIF2AK2 (human))?
The kinase still bound, per cent of control was 59%.

What about the kinase still bound, per cent of control (EPHA2 (human)) of the same compound?
The kinase still bound, per cent of control was 100%.

And the kinase still bound, per cent of control (EPHA6 (human))?
Its kinase still bound, per cent of control is 100%.

What about the kinase still bound, per cent of control (EPHB3 (human)) of the same compound?
Its kinase still bound, per cent of control is 93%.

And the kinase still bound, per cent of control (FGFR2 (human))?
The kinase still bound, per cent of control was 87%.

And the kinase still bound, per cent of control [2]?
The kinase still bound, per cent of control was 84%.

What about the kinase still bound, per cent of control (FYN (human)) of the same compound?
Its kinase still bound, per cent of control is 98%.

And the kinase still bound, per cent of control (INSR (human))?
The kinase still bound, per cent of control was 69%.

What about the kinase still bound, per cent of control (LATS1 (human)) of the same compound?
The kinase still bound, per cent of control was 90%.

What about the kinase still bound, per cent of control (LATS2 (human)) of the same compound?
The kinase still bound, per cent of control was 89%.

And the kinase still bound, per cent of control (MAP3K12 (human))?
The kinase still bound, per cent of control was 100%.

And the kinase still bound, per cent of control (MAPK4 (human))?
Its kinase still bound, per cent of control is 99%.

And the kinase still bound, per cent of control (MARK2 (human))?
Its kinase still bound, per cent of control is 100%.

What about the kinase still bound, per cent of control (MARK3 (human)) of the same compound?
The kinase still bound, per cent of control was 100%.

And the kinase still bound, per cent of control (MLTK (human))?
Its kinase still bound, per cent of control is 100%.

What about the kinase still bound, per cent of control (PIK3CD (human)) of the same compound?
Its kinase still bound, per cent of control is 100%.

And the kinase still bound, per cent of control (PKMYT1 (human))?
The kinase still bound, per cent of control was 100%.

And the kinase still bound, per cent of control (PLK1 (human))?
The kinase still bound, per cent of control was 99%.

And the kinase still bound, per cent of control (PRKCQ (human))?
The kinase still bound, per cent of control was 59%.

And the kinase still bound, per cent of control (PRKD2 (human))?
Its kinase still bound, per cent of control is 100%.

What about the kinase still bound, per cent of control (PRKG1 (human)) of the same compound?
Its kinase still bound, per cent of control is 100%.

What about the kinase still bound, per cent of control (RAF1 (human)) of the same compound?
The kinase still bound, per cent of control was 89%.

And the kinase still bound, per cent of control [3]?
The kinase still bound, per cent of control was 72%.

And the kinase still bound, per cent of control (ROS1 (human))?
Its kinase still bound, per cent of control is 82%.

And the kinase still bound, per cent of control (SIK2 (human))?
The kinase still bound, per cent of control was 82%.

What about the kinase still bound, per cent of control (STK10 (human)) of the same compound?
Its kinase still bound, per cent of control is 100%.

What about the kinase still bound, per cent of control (STK3 (human)) of the same compound?
Its kinase still bound, per cent of control is 100%.

What about the kinase still bound, per cent of control (STK38L (human)) of the same compound?
Its kinase still bound, per cent of control is 100%.

What about the kinase still bound, per cent of control (TESK1 (human)) of the same compound?
Its kinase still bound, per cent of control is 100%.

What about the kinase still bound, per cent of control (TIE1 (human)) of the same compound?
Its kinase still bound, per cent of control is 24%.

What about the kinase still bound, per cent of control (TNNI3K (human)) of the same compound?
Its kinase still bound, per cent of control is 87%.

And the kinase still bound, per cent of control (ZAP70 (human))?
The kinase still bound, per cent of control was 100%.
